# Key:
# Format in all cases: in vivo
# Kochia scoparia (KCHSC) [1] = test: B. Herbicidal post-emergence efficacy, KCHSC; conditions: for Post-emergence efficacy against KCHSC: 1280 g/ha; for Post-emergence efficacy against KCHSC in %: rated visually after about 3 weeks
# How it was run: (§1)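 Post-emergence foliar spray, at application rates of 1280 g/ha or less, on one-leaf-stage plants 2–3 weeks post-sowing, using aqueous WP or EC suspensions with 0.5% additive at 600 L/ha. Visual percent efficacy relative to untreated plants scored roughly 3 weeks later in the greenhouse.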
# Veronica persica (VERPE) [2] = test: A. Herbicidal pre-emergence efficacy, VERPE
# How it was run: (§2)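 Applied before emergence onto covering soil at rates of 1280 g/ha or less, using 600 L/ha spray water with 0.5% additive. Scoring: visual % efficacy after ~3 weeks, greenhouse.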
# [3] = test system: Matricaria inodora (MATIN); test: A. Herbicidal pre-emergence efficacy, MATIN
# Text: (§3) Seeds of mono- and dicotyledonous weed plants were placed in plastic pots in sandy loam soil (doubly sown with one species each of mono- or dicotyledonous weed plants per pot) and covered with soil. The compounds of the invention, formulated in the form of wettable powders (WP) or as emulsion concentrates (EC), were then applied onto the surface of the covering soil as aqueous suspension or emulsion with addition of 0.5% additive at a water application rate of 600 liters per hectare (converted). After the treatment, the pots were placed in a greenhouse and kept under good growth conditions for the test plants. After about 3 weeks, the efficacy of the preparations was scored visually in comparison with untreated controls as percentages.
# (§4) For example, • 100% efficacy=plants have died, • 0% efficacy=like untreated control plants.
# (§5) Tables A1a to A12c below show the effects of selected compounds of the general formula (I) according to table 1 on various harmful plants at an application rate corresponding to 1280 g/ha or less, which were obtained by the experimental procedure mentioned above.
# [4] = test system: Echinochloa crus-galli (ECHCG); test: A. Herbicidal pre-emergence efficacy, ECHCG; conditions: scored visually after about 3 weeks vs untreated controls
# How it was run: as §2
# [5] = test system: Abutilon theophrasti (ABUTH); test: B. Herbicidal post-emergence efficacy, ABUTH; conditions: rated visually after about 3 weeks
# How it was run: as §1
# [6] = test system: Amaranthus retroflexus (AMARE); test: A. Herbicidal pre-emergence efficacy, AMARE
# How it was run: as §2
# Stellaria media (STEME) [7] = test: B. Herbicidal post-emergence efficacy, STEME
# How it was run: as §1
# Setaria viridis (SETVI) [8] = test: A. Herbicidal pre-emergence efficacy, SETVI
# How it was run: as §2
# Veronica persica (VERPE) [9] = test: B. Herbicidal post-emergence efficacy, VERPE
# How it was run: as §1
# [10] = test system: Abutilon theophrasti (ABUTH); test: A. Herbicidal pre-emergence efficacy, ABUTH; conditions: scored visually after about 3 weeks vs untreated controls
# How it was run: as §2
# Poa annua (POAAN) [11] = test: A. Herbicidal pre-emergence efficacy, POAAN
# How it was run: as §2
# [12] = test system: Echinochloa crus-galli (ECHCG); test: B. Herbicidal post-emergence efficacy, ECHCG; conditions: 1280 g/ha, rated visually after about 3 weeks
# How it was run: as §1
# [13] = test system: Amaranthus retroflexus (AMARE); test: B. Herbicidal post-emergence efficacy, AMARE
# How it was run: as §1
# Stellaria media (STEME) [14] = test: A. Herbicidal pre-emergence efficacy, STEME
# How it was run: as §2
# Poa annua (POAAN) [15] = test: B. Herbicidal post-emergence efficacy, POAAN
# How it was run: as §1
# Lolium rigidum (LOLRI) = test: A. Herbicidal pre-emergence efficacy, LOLRI
# Text: as §3, §4, §5
# [16] = test system: Digitaria sanguinalis (DIGSA); test: B. Herbicidal post-emergence efficacy, DIGSA; conditions: 1280 g/ha, rated visually after about 3 weeks
# Method: (§6) Seeds of mono- and dicotyledonous weed plants were placed in plastic pots in sandy loam soil (doubly sown with in each case one species of mono- or dicotyledonous weed plants per pot), covered with soil and cultivated in a greenhouse under controlled growth conditions. 2 to 3 weeks after sowing, the test plants were treated at the one-leaf stage. The compounds of the invention, formulated in the form of wettable powders (WP) or as emulsion concentrates (EC), were applied onto the green parts of the plants as aqueous suspension or emulsion with addition of 0.5% additive at a water application rate of 600 liters per hectare (converted). After the test plants had been kept in the greenhouse under optimum growth conditions for about 3 weeks, the activity of the preparations was rated visually in comparison to untreated controls.
# (§7) For example, • 100% efficacy=plants have died, • 0% efficacy=like untreated control plants
# (§8) Tables B1a to B12c below show the effects of selected inventive compounds of the general formula (I) according to table 1 on various harmful plants at an application rate corresponding to 1280 g/ha or less, which were obtained by the experimental procedure mentioned above.
# [17] = test system: Digitaria sanguinalis (DIGSA); test: A. Herbicidal pre-emergence efficacy, DIGSA; conditions: scored visually after about 3 weeks vs untreated controls
# How it was run: as §2
# Setaria viridis (SETVI) [18] = test: B. Herbicidal post-emergence efficacy, SETVI; conditions: 1280 g/ha
# Method: as §6, §7, §8
# Kochia scoparia (KCHSC) [19] = test: A. Herbicidal pre-emergence efficacy, KCHSC; conditions: pre-emergence
# How it was run: as §2
# [20] = test system: Alopecurus myosuroides (ALOMY); test: A. Herbicidal pre-emergence efficacy, ALOMY; conditions: 1280 g/ha; scored visually after about 3 weeks vs untreated controls
# Text: as §3, §4, §5
# [21] = pre-emergence, dosage 1280 g/ha
SMILES,Post-emergence efficacy against KCHSC (Kochia scoparia (KCHSC) [1]) [%],Pre-emergence efficacy against VERPE in % (Veronica persica (VERPE) [2]; 1280 g/ha) [%],"Pre-emergence efficacy against MATIN [3, 21] [%]",Pre-emergence efficacy against ECHCG ([4]; 320 g/ha) [%],Pre-emergence efficacy against ECHCG ([4]; 1280 g/ha) [%],Post-emergence efficacy against ABUTH in % ([5]; 1280 g/ha) [%],Pre-emergence efficacy against AMARE in % ([6]; 320 g/ha) [%],Pre-emergence efficacy against AMARE in % ([6]; 1280 g/ha) [%],Post-emergence efficacy against STEME (Stellaria media (STEME) [7]; 1280 g/ha) [%],Pre-emergence efficacy against SETVI (Setaria viridis (SETVI) [8]; dosage 320 g/ha) [%],Pre-emergence efficacy against SETVI (Setaria viridis (SETVI) [8]; dosage 1280 g/ha) [%],Pre-emergence efficacy against ABUTH ([10]; 1280 g/ha) [%],Pre-emergence efficacy against POAAN (Poa annua (POAAN) [11]; dosage 320 g/ha) [%],Pre-emergence efficacy against POAAN (Poa annua (POAAN) [11]; dosage 1280 g/ha) [%],Post-emergence efficacy against ECHCG in % [12] [%],Pre-emergence efficacy against STEME (Stellaria media (STEME) [14]; dosage 320 g/ha) [%],Pre-emergence efficacy against STEME (Stellaria media (STEME) [14]; dosage 1280 g/ha) [%],Pre-emergence efficacy against LOLRI (Lolium rigidum (LOLRI); dosage 1280 g/ha) [%],Pre-emergence efficacy against DIGSA ([17]; 320 g/ha) [%],Pre-emergence efficacy against DIGSA ([17]; 1280 g/ha) [%],further results
Cc1cccc(Oc2ncc(Br)cn2)c1OS(=O)(=O)CCC(F)(F)F [Example I-33],100,100,90,100,100,100,100,100,100,100,100,100,100,100,100,100,100,100,100,100,Pre-emergence efficacy against VERPE in % (Veronica persica (VERPE) [2]; 320 g/ha): 100%; Pre-emergence efficacy against VERPE (Veronica persica (VERPE) [2]; dosage 80 g/ha): 90%; Post-emergence efficacy against ABUTH in % ([5]; 320 g/ha): 90%; Pre-emergence efficacy against AMARE in % ([6]; 80 g/ha): 90%; Post-emergence efficacy against STEME (Stellaria media (STEME) [7]; 80 g/ha): 90%; Post-emergence efficacy against STEME (Stellaria media (STEME) [7]; 320 g/ha): 100%; Post-emergence efficacy against VERPE (Veronica persica (VERPE) [9]; 80 g/ha): 100%; Post-emergence efficacy against VERPE (Veronica persica (VERPE) [9]; 320 g/ha): 100%; Post-emergence efficacy against VERPE (Veronica persica (VERPE) [9]; 1280 g/ha): 100%; Pre-emergence efficacy against ABUTH ([10]; 320 g/ha): 100%; Post-emergence efficacy against AMARE ([13]; 320 g/ha): 90%; Post-emergence efficacy against AMARE ([13]; 1280 g/ha): 100%; Pre-emergence efficacy against STEME (Stellaria media (STEME) [14]; dosage 80 g/ha): 100%; Post-emergence efficacy against POAAN (Poa annua (POAAN) [15]; 320 g/ha): 90%; Post-emergence efficacy against POAAN (Poa annua (POAAN) [15]; 1280 g/ha): 100%; Post-emergence efficacy against DIGSA in % [16]: 90%; Post-emergence efficacy against SETVI (Setaria viridis (SETVI) [18]): 100%
O=S(=O)(CC1CCCO1)Oc1c(F)cccc1Oc1ncc(Cl)cn1 (stereo not drawn) [Example I-54],90,90,90,100,100,90,100,100,90,100,100,100,90,100,90,90,100,90,90,100,Pre-emergence efficacy against KCHSC (Kochia scoparia (KCHSC) [19]; dosage 1280 g/ha): 90%; Post-emergence efficacy against VERPE (Veronica persica (VERPE) [9]; 80 g/ha): 90%; Post-emergence efficacy against VERPE (Veronica persica (VERPE) [9]; 320 g/ha): 90%; Post-emergence efficacy against VERPE (Veronica persica (VERPE) [9]; 1280 g/ha): 90%; Pre-emergence efficacy against ABUTH ([10]; 320 g/ha): 90%; Post-emergence efficacy against AMARE ([13]; 1280 g/ha): 90%; Post-emergence efficacy against POAAN (Poa annua (POAAN) [15]; 1280 g/ha): 90%; Post-emergence efficacy against DIGSA in % [16]: 90%; Post-emergence efficacy against SETVI (Setaria viridis (SETVI) [18]): 90%
O=S(=O)(CCCC(F)(F)F)Oc1c(Br)cccc1Oc1ncc(F)cn1 [Example I-44],100,100,100,100,100,100,100,100,100,100,100,100,100,100,100,100,100,100,100,100,"Pre-emergence efficacy against KCHSC (Kochia scoparia (KCHSC) [19]; dosage 320 g/ha): 100%; Pre-emergence efficacy against KCHSC (Kochia scoparia (KCHSC) [19]; dosage 1280 g/ha): 100%; Post-emergence efficacy against KCHSC in % (Kochia scoparia (KCHSC) [1]; 80 g/ha): 100%; Post-emergence efficacy against KCHSC in % (Kochia scoparia (KCHSC) [1]; 320 g/ha): 100%; Pre-emergence efficacy against VERPE in % (Veronica persica (VERPE) [2]; 320 g/ha): 100%; Pre-emergence efficacy against MATIN ([3]; 320 g/ha, scored visually after about 3 weeks vs untreated controls): 90%; Post-emergence efficacy against ABUTH in % ([5]; 320 g/ha): 90%; Pre-emergence efficacy against AMARE in % ([6]; 80 g/ha): 100%; Post-emergence efficacy against STEME (Stellaria media (STEME) [7]; 80 g/ha): 100%; Post-emergence efficacy against STEME (Stellaria media (STEME) [7]; 320 g/ha): 100%; Pre-emergence efficacy against ALOMY [20]: 100%; Pre-emergence efficacy against STEME (Stellaria media (STEME) [14]; dosage 80 g/ha): 100%; Pre-emergence efficacy against LOLRI (Lolium rigidum (LOLRI); dosage 320 g/ha): 100%"
